Assay results from PubChem BioAssay (NCI).
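Cultured in 96-well plates, cells were exposed to test compound for 48 hours across five concentrations. TGI is the concentration that stops growth completely.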

Experiments:
Assay in all cases: NCI anticancer screen, dose series, 48 h
786-0 renal = tested on: 786-0 renal
HT29 colon = tested on: HT29 colon
IGROV1 ovarian = tested on: IGROV1 ovarian
K-562 leukemia = tested on: K-562 leukemia
M14 melanoma = tested on: M14 melanoma
OVCAR-4 ovarian = tested on: OVCAR-4 ovarian
OVCAR-8 ovarian = tested on: OVCAR-8 ovarian
SF-268 CNS = tested on: SF-268 CNS
SF-539 CNS = tested on: SF-539 CNS
SK-MEL-2 melanoma = tested on: SK-MEL-2 melanoma
SN12C renal = tested on: SN12C renal
TK-10 renal = tested on: TK-10 renal

Compound | TGI (786-0 renal) | TGI (HT29 colon) | TGI (IGROV1 ovarian) | TGI (K-562 leukemia) | TGI (M14 melanoma) | TGI (OVCAR-4 ovarian) | TGI (OVCAR-8 ovarian) | TGI (SF-268 CNS) | TGI (SF-539 CNS) | TGI (SK-MEL-2 melanoma) | TGI (SN12C renal) | TGI (TK-10 renal)
CCOc1ccc(OP2(=O)NC(=O)C=C(C)N2)cc1 (stereo not drawn) | > 100 µM | > 100 µM | > 100 µM | > 100 µM | > 100 µM | > 100 µM | > 100 µM | > 100 µM | > 100 µM | > 100 µM | > 100 µM | > 100 µM
COc1ccc(OC/C(N)=N/NC(=O)c2ccncc2)cc1 | > 100 µM | > 100 µM | > 100 µM | > 100 µM | > 100 µM | > 100 µM | > 100 µM | > 100 µM | > 100 µM | > 100 µM | > 100 µM | > 100 µM
COC(=O)/C(=N\N)C(C(=O)C(=O)Nc1cc(Cl)ccc1Cl)c1nc2ccc([N+](=O)[O-])cc2[nH]c1=O (stereo not drawn) | > 100 µM | > 100 µM | > 100 µM | > 100 µM | > 100 µM | > 100 µM | > 100 µM | > 100 µM | > 100 µM | > 100 µM | > 100 µM | > 100 µM
Fc1ccc2c(c1)SC1=Nc3sc4cc(F)ccc4[n+]3CN12 | 47.4 µM | > 100 µM | 30.6 µM | 43.9 µM | > 100 µM | 72.4 µM | 38 µM | > 100 µM | 28.3 µM | 55 µM | 51.2 µM | 42.7 µM
O=C(NC1CCCCC1)c1n[nH]nc1Cl | > 100 µM | > 100 µM | > 100 µM | > 100 µM | > 100 µM | > 100 µM | > 100 µM | > 100 µM | > 100 µM | > 100 µM | > 100 µM | > 100 µM
CCOC(=O)C1(C)CCC(C(=O)OC)C1=O (stereo not drawn) | > 100 µM | > 100 µM | > 100 µM | > 100 µM | > 100 µM | > 100 µM | > 100 µM | > 100 µM | > 100 µM | > 100 µM | > 100 µM | > 100 µM
O=C(c1c(F)c(F)c(F)c(F)c1F)n1c(=S)n(C(=O)c2c(F)c(F)c(F)c(F)c2F)c2ccccc21 | > 100 µM | > 100 µM | > 100 µM | 51.5 µM | > 100 µM | > 100 µM | > 100 µM | > 100 µM | > 100 µM | > 100 µM | > 100 µM | > 100 µM
NS(=O)(=O)c1c(O)c2ccccc2oc1=O | > 100 µM | > 100 µM | > 100 µM | > 100 µM | > 100 µM | > 100 µM | > 100 µM | > 100 µM | > 100 µM | > 100 µM | > 100 µM | > 100 µM
CCCCCC(=O)OC[n+]1cccc(-c2c(COC(=O)NC(C)C)c(COC(=O)NC(C)C)c3n2CCC3)c1 | > 100 µM | > 100 µM | > 100 µM | > 100 µM | > 100 µM | > 100 µM | > 100 µM | > 100 µM | > 72.5 µM | 94.7 µM | > 100 µM | > 100 µM
CC(=O)Oc1ccc(-c2nnc(-c3ccc(OC(C)=O)cc3)nn2)cc1 | > 100 µM | > 100 µM | > 100 µM | > 100 µM | > 100 µM | > 100 µM | > 100 µM | > 100 µM | > 100 µM | > 100 µM | > 100 µM | > 100 µM
C#CCN(C(=O)C(F)(F)F)C(/C=C\C(=O)OC)(C(=O)OCC)C(=O)OCC | > 100 µM | > 100 µM | > 100 µM | > 100 µM | > 100 µM | > 100 µM | > 100 µM | > 100 µM | > 100 µM | > 100 µM | > 100 µM | > 100 µM
NC(CCC(=O)O)C(=O)NC(Cc1ccc(N(CCCl)CCCl)cc1)C(=O)O (stereo not drawn) | > 100 µM | > 100 µM | > 100 µM | > 100 µM | > 100 µM | > 100 µM | > 100 µM | > 100 µM | > 100 µM | > 100 µM | > 100 µM | > 100 µM
O=C(/C=C/c1ccccc1)CCN1CCCCC1 | 44.4 µM | 43.3 µM | > 100 µM | > 100 µM | 32.4 µM | > 100 µM | 38.4 µM | > 100 µM | 37.7 µM | > 100 µM | 48.8 µM | > 100 µM
Cc1cn([C@H]2C[C@@H](N3C(=O)c4ccccc4C3=O)[C@@H](CO[Si](C)(C)C(C)(C)C)O2)c(=O)[nH]c1=O | 81.5 µM | 51.7 µM | > 100 µM | > 100 µM | > 100 µM | > 100 µM | > 100 µM | > 100 µM | > 100 µM | > 100 µM | > 100 µM | > 100 µM
COC(=O)c1sc(=S)sc1SCc1cccc(CSc2sc(=S)sc2C(=O)OC)c1 | > 100 µM | > 100 µM | > 100 µM | > 100 µM | > 100 µM | > 100 µM | > 100 µM | > 100 µM | 62.6 µM | > 100 µM | > 100 µM | 96.9 µM
O=C(O)c1ccccc1/C=C1\Cc2cc3c(cc2C1=O)CCC3 | 70.5 µM | 49.1 µM | > 100 µM | 51.7 µM | 53.7 µM | 85.7 µM | > 100 µM | > 100 µM | 80.4 µM | 55.4 µM | 56.8 µM | 65.8 µM
COC(=O)/C=C1\C(CO[Si](C)(C)C(C)(C)C)OC(n2ccc(=O)[nH]c2=O)C1O (stereo not drawn) | 16.6 µM | 80.5 µM | > 75.2 µM | > 95.4 µM | 49.2 µM | > 100 µM | > 100 µM | 2.39 µM | 30.2 µM | 21.1 µM | > 54.4 µM | > 100 µM
CO/C(N)=C(\C#N)N=Cc1ccsc1 | > 100 µM | > 100 µM | > 100 µM | > 100 µM | > 100 µM | > 100 µM | > 100 µM | > 100 µM | > 100 µM | > 100 µM | > 100 µM | > 100 µM
Cc1ccc2c(=O)cc(-c3cc(C)sc3C)[nH]c2n1 | > 100 µM | 32.9 µM | > 100 µM | > 100 µM | > 100 µM | > 100 µM | > 37.3 µM | > 73.4 µM | 6.25 µM | > 29.6 µM | > 93.4 µM | > 100 µM
